# Patent publication US20190263796A1, “LIM KINASE INHIBITORS, PHARMACEUTICAL COMPOSITION AND METHOD OF USE IN LIMK-MEDIATED DISEASES” (CELLIPSE, priority 2016, published 2019)
# Experiments:
# Assay type in all cases: biochemical
# [1] = target: T1, PI3 Kinase (p110a(E542K)/p85a)(h) (Homo sapiens, UniProt P42336, E542K); assay: KinaseProfiler panel: PI3 Kinase (p110a(E542K)/p85a)(h); details: residual activity, 5 μM inhibitor, Km ATP
# T1 construct: purchased Merck-Millipore (KinaseProfiler panel service)
# T1 sequence (P42336 whole entry E542K): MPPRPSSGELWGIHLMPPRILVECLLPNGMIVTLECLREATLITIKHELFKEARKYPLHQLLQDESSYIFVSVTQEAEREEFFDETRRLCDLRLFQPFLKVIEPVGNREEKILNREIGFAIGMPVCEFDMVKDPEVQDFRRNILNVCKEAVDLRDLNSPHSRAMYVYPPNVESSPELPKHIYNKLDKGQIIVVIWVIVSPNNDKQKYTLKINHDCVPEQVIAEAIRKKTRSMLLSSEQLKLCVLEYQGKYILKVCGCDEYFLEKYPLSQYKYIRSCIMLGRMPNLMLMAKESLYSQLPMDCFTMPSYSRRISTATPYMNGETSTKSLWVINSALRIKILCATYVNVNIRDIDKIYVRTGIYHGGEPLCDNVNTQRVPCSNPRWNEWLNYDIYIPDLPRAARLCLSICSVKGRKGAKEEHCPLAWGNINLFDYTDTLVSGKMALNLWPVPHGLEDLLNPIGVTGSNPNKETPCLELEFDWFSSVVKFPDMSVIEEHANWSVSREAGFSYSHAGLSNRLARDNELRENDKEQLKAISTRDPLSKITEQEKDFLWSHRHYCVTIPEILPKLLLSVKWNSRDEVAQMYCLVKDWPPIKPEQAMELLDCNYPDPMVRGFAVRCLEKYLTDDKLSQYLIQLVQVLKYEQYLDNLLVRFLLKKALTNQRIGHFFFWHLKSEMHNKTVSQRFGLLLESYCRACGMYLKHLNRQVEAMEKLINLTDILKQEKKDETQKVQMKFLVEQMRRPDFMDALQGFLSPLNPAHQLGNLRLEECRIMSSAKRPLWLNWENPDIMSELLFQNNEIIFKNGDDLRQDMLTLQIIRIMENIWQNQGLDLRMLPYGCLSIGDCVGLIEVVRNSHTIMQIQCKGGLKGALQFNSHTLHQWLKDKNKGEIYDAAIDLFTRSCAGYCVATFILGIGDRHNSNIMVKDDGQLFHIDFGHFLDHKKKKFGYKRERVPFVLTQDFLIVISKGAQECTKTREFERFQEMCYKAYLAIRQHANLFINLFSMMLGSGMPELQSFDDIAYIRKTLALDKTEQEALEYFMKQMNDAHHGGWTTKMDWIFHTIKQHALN
# T1 sequence (P27986 whole entry partner): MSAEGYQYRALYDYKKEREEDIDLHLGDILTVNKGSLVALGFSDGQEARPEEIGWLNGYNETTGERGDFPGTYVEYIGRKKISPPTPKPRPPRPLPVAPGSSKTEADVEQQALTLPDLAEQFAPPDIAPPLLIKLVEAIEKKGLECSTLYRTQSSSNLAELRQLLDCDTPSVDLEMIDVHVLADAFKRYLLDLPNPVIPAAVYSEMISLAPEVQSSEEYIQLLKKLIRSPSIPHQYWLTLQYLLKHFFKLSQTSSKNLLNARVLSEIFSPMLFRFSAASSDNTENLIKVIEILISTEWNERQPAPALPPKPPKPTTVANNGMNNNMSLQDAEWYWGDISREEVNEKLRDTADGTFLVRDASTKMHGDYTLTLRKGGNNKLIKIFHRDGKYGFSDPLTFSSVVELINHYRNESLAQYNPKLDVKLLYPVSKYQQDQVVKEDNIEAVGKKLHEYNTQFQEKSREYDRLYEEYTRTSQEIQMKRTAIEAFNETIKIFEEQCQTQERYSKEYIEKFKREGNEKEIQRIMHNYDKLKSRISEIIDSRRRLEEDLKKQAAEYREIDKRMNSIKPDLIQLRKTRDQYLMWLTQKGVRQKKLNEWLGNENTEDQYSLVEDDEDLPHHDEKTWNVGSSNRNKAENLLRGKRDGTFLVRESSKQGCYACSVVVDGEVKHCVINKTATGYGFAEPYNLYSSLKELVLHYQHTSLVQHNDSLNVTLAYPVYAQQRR
# Method: (§1) Kinase selectivity was performed on a panel of 58 recombinant protein kinases. The assays were performed in the presence of 5 μM inhibitor at the respective Km ATP for each kinase, using the KinaseProfiler panel service (Merck-Millipore). Residual activity measured in the presence of […] inhibitor is expressed as the percent of activity determined in the absence of inhibitor.
# Ret(h) = target: T2, Ret(h) (Homo sapiens, UniProt P07949); assay: KinaseProfiler panel: Ret(h); details: residual activity, 5 μM inhibitor, Km ATP
# T2 construct: purchased Merck-Millipore (KinaseProfiler panel service)
# Method: as §1
# CaMKIIδ(h) = target: T3, CaMKIIδ(h) (Homo sapiens, UniProt Q13557); assay: KinaseProfiler panel: CaMKIIδ(h); details: residual activity, 5 μM inhibitor, Km ATP
# T3 construct: purchased Merck-Millipore (KinaseProfiler panel service)
# Method: as §1
# MKK4(m) = target: T4, MKK4(m) (Mus musculus, UniProt P47809); assay: KinaseProfiler panel: MKK4(m); details: residual activity, 5 μM inhibitor, Km ATP
# T4 construct: purchased Merck-Millipore (KinaseProfiler panel service)
# T4 sequence (P47809 whole entry): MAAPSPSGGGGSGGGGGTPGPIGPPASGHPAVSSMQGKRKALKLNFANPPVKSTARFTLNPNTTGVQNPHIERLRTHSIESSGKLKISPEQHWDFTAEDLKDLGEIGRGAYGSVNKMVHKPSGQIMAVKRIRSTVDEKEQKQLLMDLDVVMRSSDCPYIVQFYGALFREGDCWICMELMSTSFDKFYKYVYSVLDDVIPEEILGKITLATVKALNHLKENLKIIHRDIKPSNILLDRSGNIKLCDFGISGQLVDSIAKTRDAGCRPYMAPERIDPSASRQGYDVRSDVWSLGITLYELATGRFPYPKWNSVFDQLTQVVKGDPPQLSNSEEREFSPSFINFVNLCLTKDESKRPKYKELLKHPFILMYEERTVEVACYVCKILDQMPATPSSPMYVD
# Method: as §1
# [2] = target: T5, recombinant human LIMK2 fragment 1-638 (Homo sapiens, UniProt P53671); assay: LIMK2 kinase assay (Compound 1), anti-phospho-Ser3-cofilin detection; details: 360 μM ATP; GST-cofilin 1 substrate; chemiluminescence detection
# T5 construct: recombinant human LIMK2 fragment 1-638; 6His (N); purchased Carna Biosciences 09-106
# Method: Compounds were tested in a LIMK2 assay performed in a final volume of 12.5 μl containing 1.5 μl of compound or equivalent amount of DMSO as control, 1 μl (6.25 ng) of N-terminal 6His-tagged recombinant human LIMK2 fragment 1-638 (Carna Biosciences #09-106, in 20 mM MOPS pH=7.0, 1 mM EDTA, 0.01% NP-40, 5% glycerol, 0.1% 2-mercaptoethanol, 1 mg·mL^−1 Bovine Serum Albumin) and a mixture containing 8 mM MOPS pH=7.0, 200 μM EDTA, 110 μM of recombinant GST-cofilin 1, 10 mM MgCl2, and 360 μM ATP. Assays were performed at 30° C. for 10 min before termination by the addition of 40 μl of Laemmli buffer. Samples are then diluted into 1500 μL H2O and 100 μL are then diluted with 200 μL TBS. 5 μL are then spotted on a PVDF membrane (Merck-Millipore Immobilon P IPVH00010). After 20 min incubation RT, membrane was blocked with TBS, 0.1% Tween 20 and 5% BSA for 1 h RT under agitation. The membrane was rinsed 3 times 10 min RT under agitation with TBS, 0.1% Tween-20 (TBST) and then 1 h RT with anti-phospho-Ser3-cofilin (Cell Signaling Technology #3313, 1/1000 dilution) antibody diluted in TBS, 0.1% Tween 20 and 1% BSA. The membrane is then rinsed 3 times 10 min RT under agitation in TBST and incubated for 1 hour with anti-rabbit secondary antibody, horseradish peroxidase conjugated (Jackson Immunoresearch #711-036-152) under agitation at room temperature. […] IC50 LIMK2 is then determined.
# Flt3(D835Y)(h) = target: T6, Flt3(D835Y)(h) (Homo sapiens, UniProt P36888, D835Y); assay: KinaseProfiler panel: Flt3(D835Y)(h); details: residual activity, 5 μM inhibitor, Km ATP
# T6 construct: purchased Merck-Millipore (KinaseProfiler panel service)
# Method: as §1
# TrkB(h) = target: T7, TrkB(h) (Homo sapiens, UniProt Q16620); assay: KinaseProfiler panel: TrkB(h); details: residual activity, 5 μM inhibitor, Km ATP
# T7 construct: purchased Merck-Millipore (KinaseProfiler panel service)
# Method: as §1
# TrkC(h) = target: T8, TrkC(h) (Homo sapiens, UniProt Q16288); assay: KinaseProfiler panel: TrkC(h); details: residual activity, 5 μM inhibitor, Km ATP
# T8 construct: purchased Merck-Millipore (KinaseProfiler panel service)
# Method: as §1
# Plk1(h) = target: T9, Plk1(h) (Homo sapiens, UniProt P53350); assay: KinaseProfiler panel: Plk1(h); details: residual activity, 5 μM inhibitor, Km ATP
# T9 construct: purchased Merck-Millipore (KinaseProfiler panel service)
# Method: as §1
# cKit(h) = target: T10, cKit(h) (Homo sapiens, UniProt P10721); assay: KinaseProfiler panel: cKit(h); details: residual activity, 5 μM inhibitor, Km ATP
# T10 construct: purchased Merck-Millipore (KinaseProfiler panel service)
# Method: as §1
# Aurora-A(h) = target: T11, Aurora-A(h) (Homo sapiens, UniProt O14965); assay: KinaseProfiler panel: Aurora-A(h); details: residual activity, 5 μM inhibitor, Km ATP
# T11 construct: purchased Merck-Millipore (KinaseProfiler panel service)
# Method: as §1
# MRCKα(h) = target: T12, MRCKα(h) (Homo sapiens, UniProt Q5VT25); assay: KinaseProfiler panel: MRCKα(h); details: residual activity, 5 μM inhibitor, Km ATP
# T12 construct: purchased Merck-Millipore (KinaseProfiler panel service)
# Method: as §1
# Flt3(h) = target: T13, Flt3(h) (Homo sapiens, UniProt P36888); assay: KinaseProfiler panel: Flt3(h); details: residual activity, 5 μM inhibitor, Km ATP
# T13 construct: purchased Merck-Millipore (KinaseProfiler panel service)
# Method: as §1
# SAPK2a(h) = target: T14, SAPK2a(h) (Homo sapiens, UniProt Q16539); assay: KinaseProfiler panel: SAPK2a(h); details: residual activity, 5 μM inhibitor, Km ATP
# T14 construct: purchased Merck-Millipore (KinaseProfiler panel service)
# Method: as §1
# Flt1(h) = target: T15, Flt1(h) (Homo sapiens, UniProt P17948); assay: KinaseProfiler panel: Flt1(h); details: residual activity, 5 μM inhibitor, Km ATP
# T15 construct: purchased Merck-Millipore (KinaseProfiler panel service)
# T15 sequence (P17948 27-1338): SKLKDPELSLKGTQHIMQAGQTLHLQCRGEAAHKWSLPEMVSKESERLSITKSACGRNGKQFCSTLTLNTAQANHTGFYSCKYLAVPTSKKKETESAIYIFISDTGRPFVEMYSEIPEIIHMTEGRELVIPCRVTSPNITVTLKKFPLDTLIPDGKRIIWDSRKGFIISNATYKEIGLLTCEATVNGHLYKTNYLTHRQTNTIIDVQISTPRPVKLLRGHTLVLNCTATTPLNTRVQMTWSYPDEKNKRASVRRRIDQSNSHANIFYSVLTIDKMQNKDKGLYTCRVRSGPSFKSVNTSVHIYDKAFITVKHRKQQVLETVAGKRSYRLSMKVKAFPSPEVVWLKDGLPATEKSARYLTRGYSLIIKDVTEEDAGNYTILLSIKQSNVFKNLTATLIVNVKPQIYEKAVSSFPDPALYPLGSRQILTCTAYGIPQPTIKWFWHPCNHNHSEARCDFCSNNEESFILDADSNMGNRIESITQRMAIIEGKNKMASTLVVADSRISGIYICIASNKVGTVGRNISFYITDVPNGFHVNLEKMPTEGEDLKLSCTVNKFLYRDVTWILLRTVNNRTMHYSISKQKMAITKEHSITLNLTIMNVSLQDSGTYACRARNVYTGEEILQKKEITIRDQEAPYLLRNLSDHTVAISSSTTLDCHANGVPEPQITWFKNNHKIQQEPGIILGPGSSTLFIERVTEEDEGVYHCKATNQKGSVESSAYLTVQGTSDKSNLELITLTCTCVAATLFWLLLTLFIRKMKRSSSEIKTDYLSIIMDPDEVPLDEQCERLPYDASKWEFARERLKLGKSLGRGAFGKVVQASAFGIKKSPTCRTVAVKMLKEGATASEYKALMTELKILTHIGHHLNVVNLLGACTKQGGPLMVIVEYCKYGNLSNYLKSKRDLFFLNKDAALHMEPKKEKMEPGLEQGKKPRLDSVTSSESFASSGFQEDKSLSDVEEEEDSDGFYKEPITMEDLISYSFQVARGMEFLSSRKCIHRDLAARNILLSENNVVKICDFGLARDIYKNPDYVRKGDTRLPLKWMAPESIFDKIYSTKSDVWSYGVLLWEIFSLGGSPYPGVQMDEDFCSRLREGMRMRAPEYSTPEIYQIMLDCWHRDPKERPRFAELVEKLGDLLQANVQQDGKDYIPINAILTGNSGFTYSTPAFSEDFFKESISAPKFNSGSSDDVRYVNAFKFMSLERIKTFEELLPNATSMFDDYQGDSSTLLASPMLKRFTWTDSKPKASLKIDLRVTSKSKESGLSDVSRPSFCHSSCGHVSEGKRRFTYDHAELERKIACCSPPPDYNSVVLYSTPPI
# Method: as §1
# A-Raf(h) = target: T16, A-Raf(h) (Homo sapiens, UniProt P10398); assay: KinaseProfiler panel: A-Raf(h); details: residual activity, 5 μM inhibitor, Km ATP
# T16 construct: purchased Merck-Millipore (KinaseProfiler panel service)
# Method: as §1
# p70S6K(h) = target: T17, p70S6K(h) (Homo sapiens, UniProt P23443); assay: KinaseProfiler panel: p70S6K(h); details: residual activity, 5 μM inhibitor, Km ATP
# T17 construct: purchased Merck-Millipore (KinaseProfiler panel service)
# Method: as §1
# Abl(h) = target: T18, Abl(h) (Homo sapiens, UniProt P00519); assay: KinaseProfiler panel: Abl(h); details: residual activity, 5 μM inhibitor, Km ATP
# T18 construct: purchased Merck-Millipore (KinaseProfiler panel service)
# Method: as §1
# GSK3β(h) = target: T19, GSK3β(h) (Homo sapiens, UniProt P49841); assay: KinaseProfiler panel: GSK3β(h); details: residual activity, 5 μM inhibitor, Km ATP
# T19 construct: purchased Merck-Millipore (KinaseProfiler panel service)
# Method: as §1
# TAK1(h) = target: T20, TAK1(h) (Homo sapiens, UniProt O43318); assay: KinaseProfiler panel: TAK1(h); details: residual activity, 5 μM inhibitor, Km ATP
# T20 construct: purchased Merck-Millipore (KinaseProfiler panel service)
# T20 sequence (O43318 1-303 limits assumed): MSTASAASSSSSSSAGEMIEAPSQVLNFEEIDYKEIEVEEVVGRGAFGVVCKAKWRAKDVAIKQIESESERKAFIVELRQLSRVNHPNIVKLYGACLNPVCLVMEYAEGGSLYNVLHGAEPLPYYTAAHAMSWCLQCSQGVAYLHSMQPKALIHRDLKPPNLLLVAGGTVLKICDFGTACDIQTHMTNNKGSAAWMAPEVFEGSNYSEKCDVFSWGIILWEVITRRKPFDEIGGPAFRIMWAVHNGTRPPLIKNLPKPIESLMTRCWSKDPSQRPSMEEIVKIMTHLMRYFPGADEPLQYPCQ
# Method: as §1
# CaMKIβ(h) = target: T21, CaMKIβ(h) (Homo sapiens, UniProt Q6P2M8); assay: KinaseProfiler panel: CaMKIβ(h); details: residual activity, 5 μM inhibitor, Km ATP
# T21 construct: purchased Merck-Millipore (KinaseProfiler panel service)
# Method: as §1
# Src(1-530)(h) = target: T22, Src(1-530)(h) (Homo sapiens, UniProt P12931); assay: KinaseProfiler panel: Src(1-530)(h); details: residual activity, 5 μM inhibitor, Km ATP
# T22 construct: Src(1-530)(h); purchased Merck-Millipore (KinaseProfiler panel service)
# Method: as §1
# EGFR(h) = target: T23, EGFR(h) (Homo sapiens, UniProt P00533); assay: KinaseProfiler panel: EGFR(h); details: residual activity, 5 μM inhibitor, Km ATP
# T23 construct: purchased Merck-Millipore (KinaseProfiler panel service)
# T23 sequence (P00533 25-1210): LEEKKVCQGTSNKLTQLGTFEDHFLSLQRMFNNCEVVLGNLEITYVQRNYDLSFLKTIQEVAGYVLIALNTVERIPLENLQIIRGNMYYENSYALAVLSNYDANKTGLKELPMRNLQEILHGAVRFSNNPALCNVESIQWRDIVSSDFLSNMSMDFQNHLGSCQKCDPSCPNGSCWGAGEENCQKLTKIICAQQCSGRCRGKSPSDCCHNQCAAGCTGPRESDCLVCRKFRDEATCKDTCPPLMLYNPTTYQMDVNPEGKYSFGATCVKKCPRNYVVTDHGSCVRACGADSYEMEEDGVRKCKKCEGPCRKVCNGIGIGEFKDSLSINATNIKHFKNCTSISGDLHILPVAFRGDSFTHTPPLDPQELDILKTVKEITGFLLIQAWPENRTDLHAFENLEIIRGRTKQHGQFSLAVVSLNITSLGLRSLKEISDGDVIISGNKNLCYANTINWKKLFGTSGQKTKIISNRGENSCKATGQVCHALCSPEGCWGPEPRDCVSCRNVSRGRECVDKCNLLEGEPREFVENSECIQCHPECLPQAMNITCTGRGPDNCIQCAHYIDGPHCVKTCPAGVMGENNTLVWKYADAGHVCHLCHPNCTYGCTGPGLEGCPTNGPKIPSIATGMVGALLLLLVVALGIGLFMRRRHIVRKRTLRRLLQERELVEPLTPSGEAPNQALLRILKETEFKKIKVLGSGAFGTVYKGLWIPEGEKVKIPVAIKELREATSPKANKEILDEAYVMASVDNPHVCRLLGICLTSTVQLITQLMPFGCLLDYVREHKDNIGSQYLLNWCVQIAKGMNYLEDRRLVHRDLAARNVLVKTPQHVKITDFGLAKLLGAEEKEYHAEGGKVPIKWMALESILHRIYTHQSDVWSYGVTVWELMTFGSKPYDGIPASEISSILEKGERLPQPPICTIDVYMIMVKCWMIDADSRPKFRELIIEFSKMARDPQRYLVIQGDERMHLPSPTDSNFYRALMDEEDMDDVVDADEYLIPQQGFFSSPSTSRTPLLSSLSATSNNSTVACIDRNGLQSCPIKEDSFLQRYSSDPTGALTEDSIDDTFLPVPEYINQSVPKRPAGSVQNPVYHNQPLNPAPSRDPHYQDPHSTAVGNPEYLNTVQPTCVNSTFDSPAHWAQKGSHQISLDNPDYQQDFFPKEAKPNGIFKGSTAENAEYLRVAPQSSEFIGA
# Method: as §1
# ROCK-II(h) = target: T24, ROCK-II(h) (Homo sapiens, UniProt O75116); assay: KinaseProfiler panel: ROCK-II(h); details: residual activity, 5 μM inhibitor, Km ATP
# T24 construct: purchased Merck-Millipore (KinaseProfiler panel service)
# Method: as §1
# PAK1(h) = target: T25, PAK1(h) (Homo sapiens, UniProt Q13153); assay: KinaseProfiler panel: PAK1(h); details: residual activity, 5 μM inhibitor, Km ATP
# T25 construct: purchased Merck-Millipore (KinaseProfiler panel service)
# Method: as §1
smiles,measurement,setting,value
"CC(C)(C)c1nc(-c2cccc(NS(=O)(=O)c3c(F)cccc3F)c2F)c(-c2ccnc(Nc3ccccc3)n2)s1 [Compound 1, N-(3-(2-(tert-butyl)-5-(2-(phenylamino)pyrimidin-4-yl)thiazol-4-yl)-2-fluorophenyl)-2,6-difluorobenzenesulfonamide]",activity at 5 µM,[1],≥ 50%
same,activity at 5 µM,Ret(h),10 to 50%
same,activity at 5 µM,CaMKIIδ(h),≥ 50%
same,activity at 5 µM,MKK4(m),≥ 50%
same,IC50,[2],100 to 500 nM
same,activity at 5 µM,Flt3(D835Y)(h),≥ 50%
same,activity at 5 µM,TrkB(h),≥ 50%
same,activity at 5 µM,TrkC(h),≥ 50%
same,activity at 5 µM,Plk1(h),≥ 50%
same,activity at 5 µM,cKit(h),≥ 50%
same,activity at 5 µM,Aurora-A(h),≥ 50%
same,activity at 5 µM,MRCKα(h),≥ 50%
same,activity at 5 µM,Flt3(h),≥ 50%
same,activity at 5 µM,SAPK2a(h),≥ 50%
same,activity at 5 µM,Flt1(h),10 to 50%
same,activity at 5 µM,A-Raf(h),≥ 50%
same,activity at 5 µM,p70S6K(h),≥ 50%
same,activity at 5 µM,Abl(h),≥ 50%
same,activity at 5 µM,GSK3β(h),≥ 50%
same,activity at 5 µM,TAK1(h),≥ 50%
same,activity at 5 µM,CaMKIβ(h),≥ 50%
same,activity at 5 µM,Src(1-530)(h),3 to 10%
same,activity at 5 µM,EGFR(h),≥ 50%
same,activity at 5 µM,ROCK-II(h),≥ 50%
same,activity at 5 µM,PAK1(h),≥ 50%
